Experimental data as given in US8507562B2, “Synthesis of (1)-beta-elemene, (-)-beta-elemenal, (-)-beta-elemenol, (-)-beta-elemene fluoride and their analogues, intermediates, and composition and uses thereof” (HYWE Pharmaceuticals, Inc., priority 2004, dated 2013).
≈ marks a conversion by molar mass, not a printed value. Like-named read-outs stand apart in the source and are kept apart here.

Legend:
[1] = tested on: SKOV3/CIS cells; details: cited from earlier work
[2] = tested on: H-460 lung cancer; experiment: MTT survival assay; format: cell-based, human
[3] = Solubility comparison; format: physicochemical
[4] = tested on: A549 lung cancer; experiment: MTT survival assay; details: 2 × 10^4 cells/ml
[5] = tested on: Colon Cancer Cells Caco-2; experiment: MTS cell viability assay; format: cell-based, human; details: combinations with Elemene 100 μg/ml, n = 8
[6] = tested on: Colon Cancer Cells HCT-15; experiment: MTS cell viability assay; details: combinations with Elemene 160 μg/ml, n = 8
[7] = tested on: Colon Cancer Cells Colo 205; experiment: MTS cell viability assay; details: Colo 205, drug alone
[8] = tested on: Colon Cancer Cells HCT-116; experiment: MTS cell viability assay; format: cell-based, human; details: combinations with Elemene 160 μg/ml, n = 8
[9] = tested on: late-stage colorectal cancer; details: enema twice a day for 10 days; Elemene 200 mg (17 patients), 5-FU 500 mg (14 patients); cited from earlier work
[10] = tested on: A-172 brain tumor; experiment: MTT survival assay; format: cell-based, human; details: read-out: Cisplatin IC50; A-172; combination: Elemene at IC20 of the cell line
[11] = tested on: PC-3 prostate cancer; experiment: MTT survival assay; format: cell-based, human; details: read-out: Cisplatin IC50, combination: Elemene at IC20 of the cell line
[12] = tested on: U-87 brain tumor; experiment: MTT survival assay; format: cell-based, human; details: read-out: Cisplatin IC50; U-87; combination: Elemene at IC20 of the cell line
[13] = tested on: DU-145 prostate cancer; experiment: MTT survival assay; format: cell-based, human; details: read-out: Cisplatin IC50, combination: Elemene at IC20 of the cell line
[14] = tested on: H-69 lung cancer; experiment: MTT survival assay; format: cell-based, human; details: read-out: Cisplatin IC50, combination: Elemene at IC20 of the cell line
[15] = tested on: MCAS ovarian cancer; experiment: MTT survival assay; format: cell-based, human; details: read-out: Cisplatin IC50, combination: Elemene at IC20 of the cell line
[16] = tested on: CCL-2 (Hela) cervical cancer; experiment: MTT survival assay; format: cell-based, human; details: read-out: Cisplatin IC50, combination: Elemene at IC20 of the cell line

## COc1ccc(CCN(C)CCCC(C#N)(c2ccc(OC)c(OC)c2)C(C)C)cc1OC (stereo not shown) [Verapamil]
[1]
  enhancement of sensitivity to doxorubicin: 260 fold

## C=C[C@]1(C)CC[C@@H](C(=C)CO)C[C@H]1C(=C)C [(−)-beta-elemenol, (−)-Beta-elemenol]
[2]; H460, 24 h, 2 × 10^4 cells/ml
  IC50: 111.0 µg/mL
[2]; H460, 48 h, 2 × 10^4 cells/ml
  IC50: 69.0 µg/mL
[2]; H460, 72 h, 2 × 10^4 cells/ml
  IC50: 74.5 µg/mL
[3]
  solubility relative to (−)-beta-elemene: more soluble than (−)-beta-elemene
[4]; A549, 24 h
  IC50: 74.0 µg/mL (≈ 336 µM)
[4]; A549, 48 h
  IC50: 60.1 µg/mL (≈ 273 µM)
[4]; A549, 72 h
  IC50: 81.0 µg/mL (≈ 368 µM)

## O=c1[nH]cc(F)c(=O)[nH]1 [Lr 5-Fu]
[5]; Caco-2, 4 hr/24 hr × 2
  IC50: 17.0 ± 3.29 µg/mL
[5]; Caco-2, 4 hr/24 hr × 3
  IC50: 13.8 ± 2.27 µg/mL
[5]; Caco-2, 4 hr/24 hr
  IC50: 28.8 ± 9.87 µg/mL
[5]; Caco-2, 4 hr
  IC50: 189 ± 27.1 µg/mL
[5]; Caco-2, 8 hr
  IC50: 102 ± 13.0 µg/mL
[5]; Caco-2, 12 hr
  IC50: 42.5 ± 9.84 µg/mL
[5]; Caco-2, 24 hr
  IC50: 23.9 ± 4.37 µg/mL
[5]; Caco-2, 48 hr
  IC50: 18.3 ± 2.83 µg/mL
[5]; Caco-2, 72 hr
  IC50: 12.6 ± 2.07 µg/mL
[6]; HCT-15, 4 hr/24 hr × 2
  IC50: 40.0 ± 7.01 µg/mL
[6]; HCT-15, 4 hr/24 hr × 3
  IC50: 28.4 ± 7.62 µg/mL
[6]; HCT-15, 4 hr/24 hr
  IC50: 80.0 ± 13.6 µg/mL
[6]; HCT-15, 8 hr
  IC50: 68.1 ± 7.63 µg/mL
[6]; HCT-15, 12 hr
  IC50: 52.1 ± 5.09 µg/mL
[6]; HCT-15, 48 hr
  IC50: 18.4 ± 4.32 µg/mL
[6]; HCT-15, 72 hr
  IC50: 7.95 ± 3.80 µg/mL
[7]; Time 4 hr, n = 8
  IC50: 117 ± 9.02 µg/mL (≈ 899 µM)
[7]; Time 4 hr/24 hr × 2, n = 8
  IC50: 26.3 ± 5.34 µg/mL (≈ 202 µM)
[7]; Time 4 hr/24 hr × 3, n = 8
  IC50: 11.6 ± 4.13 µg/mL (≈ 89.2 µM)
[7]; Time 4 hr/24 hr, n = 8
  IC50: 34.6 ± 4.76 µg/mL (≈ 266 µM)
[7]; Time 8 hr, n = 8
  IC50: 91.3 ± 5.62 µg/mL (≈ 702 µM)
[7]; Time 12 hr, n = 8
  IC50: 36.7 ± 4.66 µg/mL (≈ 282 µM)
[7]; Time 24 hr, n = 8
  IC50: 21.1 ± 6.06 µg/mL (≈ 162 µM)
[7]; Time 48 hr, n = 8
  IC50: 13.2 ± 1.44 µg/mL (≈ 101 µM)
[7]; Time 72 hr, n = 8
  IC50: 11.0 ± 1.60 µg/mL (≈ 84.6 µM)
[8]; HCT-116, 4 hr/24 hr × 2
  IC50: 42.7 ± 4.78 µg/mL
[8]; HCT-116, 4 hr/24 hr × 3
  IC50: 22.4 ± 8.75 µg/mL
[8]; HCT-116, 4 hr/24 hr
  IC50: 85.1 ± 8.89 µg/mL
[8]; HCT-116, 4 hr
  IC50: 83.3 ± 12.1 µg/mL
[8]; HCT-116, 8 hr
  IC50: 43.1 ± 13.1 µg/mL
[8]; HCT-116, 12 hr
  IC50: 21.7 ± 3.70 µg/mL
[8]; HCT-116, 24 hr
  IC50: 11.8 ± 2.54 µg/mL
[8]; HCT-116, 48 hr
  IC50: 7.4 ± 1.82 µg/mL
[8]; HCT-116, 72 hr
  IC50: 4.5 ± 0.74 µg/mL
[9]
  CR: CR: 57.1%
  PR: PR: 21.4%

## N.N.[Cl][Pt][Cl] [Cisplatin]
[10]
  IC50: 24 µM
[2]; read-out: Cisplatin IC50, H-460, combination: Elemene at IC20 of the cell line
  IC50: 80 µM
[11]
  IC50: 80 µM
[12]
  IC50: 10 µM
[13]
  IC50: 384 µM
[14]
  IC50: 8 µM
[15]
  IC50: 38 µM
[16]
  IC50: 27.5 µM
